Source: patent US7446091B2, “Methods and preparations for curing clinically ill patients” (Novo Nordisk A/S, priority 2000, dated 2008)

Test system: patients treated in the ICU
Assay: Example 1: prospective clinical study, weekly EMG screening for CIPNP in long-stay ICU patients
Assay type: in vivo, human
Conditions: for CIPNP-free time on the ICU: long-stay patients
Description: Between Feb. 2 and Apr. 25, 2000, 400 patients were included in the study. […] All other treatments, including feeding regimens, were according to standing orders currently applied within the ICU. Exclusion criteria were age <18y, pregnancy and not being intubated at admission.
When patients were still treated in the ICU after 7 days, a weekly EMG examination was performed to screen for the presence of CIPNP. The EMGs were always interpreted by the same expert in electrophysiology. In order to accurately assess ICU stay, which is often determined by other factors than the patient's condition—e.g. bed availability on the wards—“end of ICU stay” was defined as the day on which the attending physician considers the patient to be “ready for discharge”.

Substance: insulin
- Long-stay ICU patients with a positive EMG for CIPNP (% of the long stayers) (intensive insulin group): 39%
- Number of positive EMGs for CIPNP per patient (mean ± SD) (intensive insulin group): 0.9±1.8
- Number of positive EMGs for CIPNP per patient (median) (intensive insulin group): zero
- Long-stay ICU patients with a positive EMG for CIPNP at any time during the ICU stay, number (intensive insulin group, 38 long-stay patients): Fifteen
- ICU-mortality, difference between the two treatment groups (intensive vs restrictive insulin schedule, P=0.4): not detectably different
- CIPNP-free time on the ICU (intensive insulin group): 2.1±1.8 weeks
- CIPNP-free time on the ICU (restrictive insulin group): 1.1±1.2 weeks
- Long-stay ICU patients with a positive EMG for CIPNP (% of the long stayers) (restrictive insulin group): 67%
- Number of positive EMGs for CIPNP per patient (mean ± SD) (restrictive insulin group): 1.8±2.1
- Number of positive EMGs for CIPNP per patient (median) (restrictive insulin group): 1
- Long-stay ICU patients with a positive EMG for CIPNP at any time during the ICU stay, number (restrictive insulin group, 45 long-stay patients): 30
